Data: PubChem BioAssay (NCI)
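Protocol summary: plate cells (96-well), add compound at 5 concentrations, incubate 48 h, interpolate endpoints linearly. At the GI50, growth is halved. Definition used: TGI = concentration required for complete inhibition of growth.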

Legend:
Experiment in all cases: NCI anticancer screen, dose series, 48 h
[1] = test system: RXF 393 renal
[2] = test system: NCI-H23 lung
[3] = test system: HCC-2998 colon
[4] = test system: SK-MEL-5 melanoma
[5] = test system: M14 melanoma
[6] = test system: SR leukemia
[7] = test system: T-47D breast
[8] = test system: KM12 colon
[9] = test system: SK-MEL-28 melanoma
[10] = test system: 786-0 renal
[11] = test system: PC-3 prostate
[12] = test system: IGROV1 ovarian
[13] = test system: BT-549 breast
[14] = test system: UACC-257 melanoma
[15] = test system: CAKI-1 renal
[16] = test system: HCT-15 colon
[17] = test system: HOP-62 NSCLC
[18] = test system: RPMI-8226 leukemia
[19] = test system: TK-10 renal
[20] = test system: HS 578T breast
[21] = test system: HL-60(TB) leukemia
[22] = test system: NCI-H522 lung
[23] = test system: UO-31 renal
[24] = test system: MDA-MB-435
[25] = test system: MDA-MB-231 breast
[26] = test system: SNB-75 CNS
[27] = test system: CCRF-CEM leukemia
[28] = test system: LOX IMVI melanoma
[29] = test system: SW-620 colon
[30] = test system: SK-MEL-2 melanoma
[31] = test system: UACC-62 melanoma
[32] = test system: U251 CNS
[33] = test system: A549 NSCLC
[34] = test system: MALME-3M melanoma
[35] = test system: OVCAR-5 ovarian
[36] = test system: OVCAR-3 ovarian
[37] = test system: HT29 colon
[38] = test system: SK-OV-3 ovarian
[39] = test system: NCI/ADR-RES ovarian
[40] = test system: OVCAR-8 ovarian
[41] = test system: NCI-H460 lung
[42] = test system: K-562 leukemia
[43] = test system: SF-295 CNS
[44] = test system: A498 renal
[45] = test system: SF-268 CNS
[46] = test system: NCI-H226 lung
[47] = test system: MOLT-4 leukemia
[48] = test system: SNB-19 CNS
[49] = test system: SN12C renal
[50] = test system: OVCAR-4 ovarian
[51] = test system: EKVX NSCLC
[52] = test system: HOP-92 NSCLC
[53] = test system: SF-539 CNS
[54] = test system: DU-145 prostate
[55] = test system: HCT-116 colon
[56] = test system: MCF7 breast
[57] = test system: COLO 205 colon
[58] = test system: ACHN renal

For `NC(=O)c1c(NC(=O)c2ccc(C3CCCCC3)cc2)sc2c1CCC(=O)C2`, the GI50 [1] was 301 nM, the TGI [1] was 1190 nM and the GI50 [2] was 314 nM. The TGI [2] was 4340 nM, the GI50 [3] was 1100 nM and the TGI [3] was 5410 nM. It also gave a GI50 [4] of 630 nM, a TGI [4] of 1770 nM and a GI50 [5] of 371 nM. The TGI [5] was 1870 nM, the GI50 [6] was 108 nM and the GI50 [7] was 193 nM. The TGI [7] was 2340 nM, the GI50 [8] was 349 nM and the TGI [8] was 5260 nM. It also gave a GI50 [9] of 509 nM, a TGI [9] of 2150 nM and a GI50 [10] of 663 nM. The TGI [10] was 2870 nM, the GI50 [11] was 130 nM and the TGI [11] was 1590 nM. For the same molecule, the GI50 [12] was 434 nM, the TGI [12] was 2030 nM and the GI50 [13] was 283 nM. For the same molecule, the TGI [13] was 1390 nM, the GI50 [14] was 725 nM and the TGI [14] was 3230 nM. It also gave a GI50 [15] of 248 nM, a TGI [15] of 1470 nM and a GI50 [16] of 155 nM. The TGI [16] was 1260 nM, the GI50 [17] was 1480 nM and the TGI [17] was 24100 nM. For the same molecule, the GI50 [18] was 135 nM, the TGI [18] was 596 nM and the GI50 [19] was 373 nM. The TGI [19] was 2300 nM, the GI50 [20] was 383 nM and the TGI [20] was 5710 nM. For the same molecule, the GI50 [21] was 307 nM, the TGI [21] was > 30800 nM and the GI50 [22] was 227 nM. For the same molecule, the TGI [22] was 1450 nM, the GI50 [23] was 177 nM and the TGI [23] was 690 nM. It also gave a GI50 [24] of 611 nM, a TGI [24] of 2170 nM and a GI50 [25] of 384 nM. For the same molecule, the TGI [25] was 1750 nM, the GI50 [26] was 1390 nM and the TGI [26] was 3420 nM. The GI50 [27] was 142 nM, the GI50 [28] was 186 nM and the TGI [28] was 1010 nM. For the same molecule, the GI50 [29] was 142 nM, the TGI [29] was 1660 nM and the GI50 [30] was 980 nM. The TGI [30] was 3530 nM, the GI50 [31] was 276 nM and the TGI [31] was 1430 nM. It also gave a GI50 [32] of 246 nM, a TGI [32] of 1620 nM and a GI50 [33] of 419 nM. It also gave a TGI [33] of 6080 nM, a GI50 [34] of 314 nM and a TGI [34] of 1190 nM. For the same molecule, the GI50 [35] was 402 nM, the TGI [35] was 1980 nM and the GI50 [36] was 389 nM. The TGI [36] was 2620 nM, the GI50 [37] was 268 nM and the TGI [37] was 1810 nM. It also gave a GI50 [38] of 1180 nM, a TGI [38] of 5890 nM and a GI50 [39] of 360 nM. For the same molecule, the TGI [39] was 5040 nM, the GI50 [40] was 380 nM and the TGI [40] was > 20200 nM. The GI50 [41] was 645 nM, the TGI [41] was 3640 nM and the GI50 [42] was 122 nM. For the same molecule, the TGI [42] was > 100000 nM, the GI50 [43] was 681 nM and the TGI [43] was 2500 nM. The GI50 [44] was 1990 nM, the TGI [44] was 5840 nM and the GI50 [45] was 532 nM. For the same molecule, the TGI [45] was 3460 nM, the GI50 [46] was 705 nM and the TGI [46] was 2610 nM. The GI50 [47] was 357 nM, the TGI [47] was > 22400 nM and the GI50 [48] was 426 nM. The TGI [48] was 3010 nM, the GI50 [49] was 438 nM and the TGI [49] was 2830 nM. For the same molecule, the GI50 [50] was 377 nM, the TGI [50] was 1710 nM and the GI50 [51] was 502 nM. It also gave a TGI [51] of 3210 nM, a GI50 [52] of 246 nM and a TGI [52] of 1040 nM. The GI50 [53] was 211 nM, the TGI [53] was 826 nM and the GI50 [54] was 1730 nM. For the same molecule, the TGI [54] was > 100000 nM, the GI50 [55] was 108 nM and the TGI [55] was 1300 nM. The GI50 [56] was 292 nM, the TGI [56] was 2530 nM and the GI50 [57] was 208 nM. The TGI [57] was 650 nM, the GI50 [58] was 164 nM and the TGI [58] was 598 nM.
